Measurements from US20240197727A1, “SOLID DISPERSIONS COMPRISING AMORPHOUS PIMOBENDAN AND ONE OR MORE STABILIZING POLYMERS” (Boehringer Ingelheim Vetmedica GmbH, priority 2022, published 2024).
In brackets after ≈: the same amount, converted by molar mass.

What was measured:
[1] = Thermodynamic (equilibrium) solubility at 37° C., immersed UV probes; type: physicochemical; conditions: aqueous buffer, thermodynamic from solid
[2] = pH 5; cited from earlier work

- solubility thermodynamic ([1]; pH 3.0 (maleic acid buffer)): 19.5 µg/mL (≈ 58.3 µM)
- solubility thermodynamic ([1]; pH 6.5 (phosphate buffer)): 0.3 µg/mL (≈ 0.897 µM)
SMILES: COc1ccc(-c2nc3ccc(C4=NNC(=O)CC4C)cc3[nH]2)cc1 (stereo not drawn) [Crystalline pimobendan]
- Solubility (amount that dissolves) in water [2]: about 1 mg/liter
